Assay [1] has as its system 832/13 cells. Kind of assay: Live cell calcium imaging, glucose-induced calcium response (Calcium Green). In kind it is cell-based, rat. As to the method:
832/13 cells were plated into six-well plates containing poly-d-lysine-coated coverslips (Neuvitro, Vancouver, Wash.). At 50% confluence, cells were treated for 18 h with one of four experimental groups: 1 ng/ml […] alone, 1 mM I-NMMA alone, IL-1β+ I-NMMA, or normal growth media. Immediately prior to imaging, cells were preloaded with Calcium Green 1 AM (CG, C3012; Life Technologies) by transferring coverslips to a solution of 10|×M CG in 20% Pluronic F127 in DMSO (Life Technologies) made up in carbogenated (95% 02-5% C02) normal Krebs. The recipe for normal Krebs solution was (in mM) 124 NaCl, 25 NaHC03, 2 glucose, 3 KC1, 2 CaCl2, 1.5 NaH2P04, and 1 MgS04-7H20, which corrected to pH 7.4 with HCl. After incubation in the CG solution for 30 min, coverslips were transferred to carbogenated normal Krebs at 29° C.
Coverslips were transferred to a recording chamber on a fixed stage Zeiss Axioskop2 microscope equipped with a Perkin Elmer Ultra-view/Yokogawa C10 spinning disk laser confocal illuminator. Cells were illuminated with the 488 nm laser; CG-calcium fluorescence signals were collected at 509 nm. Cells were visualized with a X40 water immersion objective. Images were collected with a Hammamatsu Ocra-ER charge-coupled device camera. The confocal system, including image collection, was controlled by Perkin-Elmer Improvision software.
Cells on coverslips were constantly perfused with normal Krebs solution at 29° C. at a rate of 3 ml/min. After 10 min, the perfusion solution was switched to one containing 12 mM glucose and proportionally less sodium chloride to maintain osmolality. The 12 mM glucose challenge was applied for 5 min, followed by a 5 min washout period. Images of CG-labeled cells were collected continuously during the challenge period at a rate of 20/min, with each frame taking 1 s. Images were collected as TIFF stacks and processed using Nikon Elements AR software. Individual cells in the field were designated as regions of interest (ROI), and their fluorescence signal over time was captured. Background fluorescence was subtracted from the fluorescence signal of individual ROIs. The relative changes in cytoplasmic calcium in the cells were expressed as changes in fluorescence [(AF/F) %], where F is the intensity of the baseline fluorescence signal before stimulation and AF is the difference between the peak fluorescence intensity and the baseline signal. Therefore, magnitude of response was normalized for each individual ROI.

The subject of assay [2] is 832/13 cells. Nature of the assay: Oxygen consumption rate (Seahorse XF24). The class given is cell-based, rat. The conditions noted are these: 1 ng/ml IL-1β + 1 mM I-NMMA, 18 h. As to the method:
Oxygen consumption rates (OCR) were measured using the XF^24 Extracellular Flux Analyzer (Seahorse Bioscience, Chicopee, Mass.). 832/13 cells were grown on cell culture plates for 2 days prior to OCR assays being run. Cells were treated with vehicle, 1 ng/ml IL-β, 1 mM I-NMMA, or both IL-1β (1 ng/ml) plus I-NMMA (1 mM) for 18 h prior to OCR being measured. The oxygen consumption rate was measured over a 2-h period. Data represent the calculated average area under the curve from six wells per treatment group over multiple independent experiments.

Assay [3] has as its system CCL2. Nature of the assay: CCL2 secretion into media of 832/13 cells, ELISA. The class given is cell-based, rat. The settings on record: 1 ng/ml IL-1β + 1 mM I-NMMA, 6 h. As to the method:
(§1) 832/13 cells were grown in 12-well plates and treated as indicated. RPMI was supplemented with 0.3% BSA, and media were collected at the indicated time points. In addition, the cells were lysed using M-PER lysis reagent (Thermo Fisher Scientific) to quantify total intracellular protein content. CCL2 and CCL20 secretion into the media was measured by CCL2 Quantikine ELISA kit (R & D Systems, Minneapolis, Minn.) and CCL20 DuoSet ELISA kit (R & D Systems) according to the manufacturer's protocol. ELISA data were normalized to total protein to account for any differences in cell number between treatment groups.

In assay [4] the test system is 832/13 cells. Nature of the assay: Nitric oxide by EPR spectroscopy with (MGD)2Fe2+ spin trap. The settings on record: 1 ng/ml IL-1β 18 h. In kind it is cell-based, rat. As to the method: The spin trap Af-methyl-d-glucamine dithiocarbamate-iron complex [(MGD)2-Fe^2+] was prepared fresh in each experiment by making stock solutions of 500 mM MGD and 100 mM Fe^2+ (from FeS04.7 H20) in ultrapure water under anaerobic conditions. A final concentration of 25 mM MGD and 5 mM Fe^2+ was introduced onto cells in culture using serum-free media with a 30-min incubation period. Supernatants were then collected for the measurements of the (MGD)2-iron-NO complex. All electron paramagnetic resonance (EPR) measurements were carried out in a quartz flat cell at room temperature. Samples were transferred directly into the flat cell, which was then placed into the cavity of a Bruker EMX Plus spectroscope. Typical instrumental conditions were as follows: 20 mW of microwave power, 5.0-G modulation amplitude, 1×10^5 gain, 0.163-s time constant, and 80-G scan range. Quantitation was carried out by measuring and comparing the first peak heights on the spectra.

In assay [5] the test system is 832/13 cells. Kind of assay: Nitrite accumulation in culture media, Griess assay. The class given is cell-based, rat. The conditions noted are these: 832/13 cells, 1 ng/ml IL-1β 18 h. As for the experimental part:
(§2) Nitrite in the cell culture media was measured as an index of NO production using the Griess assay kit (Promega, Madison, Wis.), whereas cellular reduction of the 3-(4,5-dimethylthiazol-2-yl)-5-(3-carboxymethoxyphenyl)-2-(4-sulfophe-nyl)-2H-tetrazohum, inner salt (MTS) dye was determined using the MTS 1 solution kit (Promega) according to the manufacturer's protocol.

For assay [6], the system named is 832/13 cells. Nature of the assay: MTS dye reduction assay. The class given is cell-based, rat. The conditions noted are these: 1 ng/ml IL-1β + 1 mM I-NMMA, 18 h. As for the experimental part:
as §2
Background: Tetrazolium assays rely on reduction of a dye to a coloured formazan, in cell work by metabolically active cells.

The subject of assay [7] is CCL20. Kind of assay: CCL20 secretion into media of 832/13 cells, ELISA. The class given is cell-based, rat. The conditions noted are these: 1 ng/ml IL-1β + 1 mM I-NMMA, 6 h. As to the method: as §1
(In general: In an ELISA, binding on a coated surface is turned into a signal by an enzyme label.)

For assay [8], the system named is 832/13 cells. Nature of the assay: Glucose-stimulated insulin secretion (GSIS) in 832/13 cells, insulin ELISA. The class given is cell-based, rat. As for the experimental part:
832/13 cells were grown in 12-well plates and treated as indicated. Glucose-stimulated insulin secretion (GSIS) assays were performed as described previously (29). Insulin secretion by cell lines into the media was measured using either the High Range Rat Insulin ELISA kit (Mercodia, Uppsala, Sweden) or by rat islets using the insulin radioimmunoassay (Siemens, Malvern, Pa.) according to the company directions. In addition, cells were lysed using M-PER lysis reagent (Thermo Fisher Scientific) to quantify total intracellular protein content via BCA assay (Thermo Fisher Scientific). Insulin secretion data were normalized to total protein to account for any differences in cell number between treatment groups. Incorporation of tritiated thymidine into DNA as a cellular index of proliferation was carried out as described (45).

Assay [9] deals with islets isolated from ZDF rats. The settings on record: islets from ZDF rats and clonal cells cultured in lipids; cited from earlier work.
Setting [10] is: pretreated 18 h with I-NMMA plus IL-1β, 12 mM glucose.

The source of these data is patent US20190086390A1, “INDIRECT ASSESSMENT OF INSULIN RELEASE IN A CELL” (Board of Supervisors of Louisiana State University and …, priority 2016, published 2019).

Molecules are shown by their SMILES. “Also recorded” adds a separate entry of the source.

Regarding `CNC(=N)NCCC[C@H](N)C(=O)O` [I-NMMA, N^G-monomethyl-L-arginine, reference compound], the “IL-1β-reduced change in intracellular calcium with NOS inhibitor” value in assay [1] (1 mM I-NMMA) is “completely prevented”. In addition, in assay [1] (setting [10]), the “magnitude of the response” value is 30% and the “number of responsive cells” value stood at 89%. In addition, the “responders and response magnitude relative to control pretreatment” value in assay [1] (pretreated with I-NMMA alone) is recorded as “differed neither in the number of responders nor in the magnitude of the responses”. The “IL-1β-induced decrease in oxygen consumption rate with NOS inhibitor” value in assay [2] is “prevented”. In assay [3], the “IL-1β-induced synthesis and secretion of CCL2 with NOS inhibitor” value is on record as “not altered”. The “IL-1β-induced nitric oxide production in presence of inhibitor” value in assay [4] was “lack of IL-Iβ-mediated elevations in nitric oxide formation”. Besides, the “IL-1β-induced nitrite production in presence of inhibitor” value in assay [5] is recorded as “completely inhibited”. For the same compound, the “IL-1β-induced decrease in MTS reduction with NOS inhibitor” value in assay [6] was “fully recovered”. In assay [7], the “IL-1β-induced CCL20 secretion with NOS inhibitor” value is on record as “not impacted”. In assay [8] (IL-1β 1 ng/ml + I-NMMA 1 mM, 18 h), the “recovery of insulin secretion” value is “almost complete recovery”.
`COC(=O)CC(O)C(=O)OC` (stereo not shown) [dimethyl malate, reference compound]: in [9], the insulin secretion result is reported as “improves insulin secretion”. In [8] (IL-1β 18 h, 10 uM DMM during final 2 h), the “recovery of insulin secretion” value is given as “could be recovered; also recorded: enhanced insulin secretion”.
